Patent US9662372B2 (priority 2013, dated 2017)
“And” between values parts separate entries of the source, which are not always exact repeats. Identical values can stand only once.

What follows are compounds tested on C. difficile ATCC 9689 (assay: not given). Settings: not given.
Format: cell-based, Clostridium difficile

Row | Compound | Toxin | Toxin induction (rank, in words) | Average dye reduction rate of CHO-k1 in the presence of C. difficile supernatant | Corrected dye reduction rate
1 | Lys-Lys | 150 ng/mL | – | – | –
2 | Gly-Glu | 366 ng/mL and 184 ng/mL | – | – | –
3 | Arg-Glu | 4059 ng/mL | – | – | –
4 | Arg-Ala | 10080 ng/mL | – | – | –
5 | 2,3-Butanone | <0.122 ng/mL | – | – | –
6 | Trp-Trp | 4104 ng/mL | – | – | –
7 | Val-Tyr-Val | 296 ng/mL | – | – | –
8 | His-Trp | 178 ng/mL | – | – | –
9 | Nc1ncnc2nc[nH]c12 [Adenine] | – | strongest toxin inducer | – | –
10 | Pro-Arg | 2967 ng/mL | – | – | –
11 | Gly-Pro | 3798 ng/mL | – | – | –
12 | Ile-Arg | 122 ng/mL | – | – | –
13 | O=P1([O-])OP(=O)([O-])OP(=O)([O-])O1.[Na+].[Na+].[Na+] [Trimetaphosphate] | <0.122 ng/mL | – | – | –
14 | His-Lys | 6993 ng/mL | – | – | –
15 | O=C[C@H](O)[C@@H](O)[C@H](O)[C@H](O)CO [D-glucose] | – | – | 57.19 | 54.6

Each compound was assayed on C. difficile ATCC 9689 (assay: Bacterial mass in wells of PM panels (OD 750 nm)). Settings: OD difference with vs without C. difficile, 72 h; carbon source (PM01/PM02).
Format: cell-based, Clostridium difficile

Row | Compound | C. difficile Mass
16 | Gly-Glu | 0.0411 OD (750 nm)
17 | CSCC[C@H](N)C(=O)O [L-Methionine] | 0.0818 OD (750 nm)
18 | 2,3-Butanone | 0.0572 OD (750 nm)
19 | NCCc1ccccc1 [β-Phenylethylamine] | 0.0477 OD (750 nm)
20 | CC(=O)C(=O)O [Pyruvic Acid] | 0.093 OD (750 nm)
21 | C[C@@H](O)[C@H](N)C(=O)O [L-Threonine] | 0.0643 OD (750 nm)
22 | CC(=O)N[C@H]1[C@H]([C@H](O)[C@H](O)CO)OC(O)(C(=O)O)C[C@@H]1O (stereo partly drawn) [N-Acetyl-Neuraminic acid] | 0.1163 OD (750 nm)
23 | N[C@@H](Cc1ccccc1)C(=O)O [L-Phenylalanine] | 0.0714 OD (750 nm)
24 | N[C@H](CO)C(=O)O [D-Serine] | 0.1114 OD (750 nm)
25 | O=C(O)CC(Br)C(=O)O (stereo not drawn) [Bromosuccinic Acid] | 0.0335 OD (750 nm)
26 | C[C@@H](N)C(=O)O [D-Alanine] | 0.1233 OD (750 nm)
27 | CCCCCCCCCC(=O)O [Capric acid] | 0.014 OD (750 nm)
28 | CC(C)[C@H](N)C(=O)O [L-Valine] | 0.0917 OD (750 nm)
29 | CC(C)C[C@H](N)C(=O)O [L-Leucine] | 0.089 OD (750 nm)
30 | N[C@@H](CCO)C(=O)O [L-Homoserine] | 0.0071 OD (750 nm)
31 | C[C@H](O)[C@@H](N)C(=O)O [D-Threonine] | 0.0923 OD (750 nm)
32 | O=C(O)/C=C/C(=O)O [Fumaric Acid] | 0.018 OD (750 nm)
33 | O=C[C@@H](O)[C@@H](O)[C@H](O)CO [D-Lyxose] | 0.1508 OD (750 nm)
34 | C[C@H](N)C(=O)O [L-Alanine] | 0.113 OD (750 nm)
35 | Dextrin | 0.0478 OD (750 nm)
36 | CCCCCC(=O)O [Caproic acid] | 0.0568 OD (750 nm)
37 | O=C(CO)[C@@H](O)[C@@H](O)[C@H](O)CO [D-Tagatose] | 0.138 OD (750 nm)
38 | N[C@H](CC(=O)O)C(=O)O [D-Aspartic acid] | 0.0269 OD (750 nm)
39 | OCc1ccccc1O[C@@H]1O[C@H](CO)[C@@H](O)[C@H](O)[C@H]1O [Salicin] | 0.1291 OD (750 nm)
40 | N[C@@H](CO)C(=O)O [L-Serine] | 0.0635 OD (750 nm)
41 | O=C(CO)[C@@H](O)[C@H](O)[C@H](O)CO [D-Fructose] | 0.1435 OD (750 nm)
42 | OC[C@H]1O[C@@H](Oc2ccc(O)cc2)[C@H](O)[C@@H](O)[C@@H]1O [Arbutin] | 0.128 OD (750 nm)
43 | CC(=O)N[C@H]1C(O)O[C@H](CO)[C@@H](O)[C@@H]1O (stereo partly drawn) [N-Acetyl-D-Glucosamine] | 0.0955 OD (750 nm)

Same assay, conditions: OD difference with vs without C. difficile, 72 h; nitrogen source (PM03/06/07/08)

Row | Compound | C. difficile Mass
44 | Lys-Lys | 0.0427 OD (750 nm)
45 | Gly-Glu | 0.0472 OD (750 nm)
46 | N=C(N)NCCCCN [Agmatine] | 0.043 OD (750 nm)
47 | NCCC[C@H](N)C(=O)O [L-Ornithine] | 0.0369 OD (750 nm)
48 | Arg-Glu | 0.0404 OD (750 nm)
49 | Arg-Ala | 0.0456 OD (750 nm)
50 | N=C(N)NCCC[C@H](N)C(=O)O [L-Arginine] | 0.046 OD (750 nm)
51 | CC[C@H](C)[C@H](N)C(=O)O [L-Isoleucine] | 0.0563 OD (750 nm)
52 | NCCc1ccccc1 [β-Phenylethylamine] | 0.0448 OD (750 nm)
53 | NCCc1ccc(O)cc1 [Tyramine] | 0.0442 OD (750 nm)
54 | Trp-Trp | 0.055 OD (750 nm)
55 | Val-Tyr-Val | 0.0382 OD (750 nm)
56 | His-Trp | 0.0442 OD (750 nm)
57 | Nc1ncnc2nc[nH]c12 [Adenine] | 0.031 OD (750 nm)
58 | NC(=O)C[C@@H](N)C(=O)O [D-Asparagine] | 0.0321 OD (750 nm)
59 | Cc1c[nH]c(=O)[nH]c1=O [Thymine] | 0.0338 OD (750 nm)
60 | Pro-Arg | 0.0442 OD (750 nm)
61 | N[C@H]1C(O)O[C@H](CO)[C@@H](O)[C@@H]1O (stereo partly drawn) [D-Glucosamine] | 0.0447 OD (750 nm)
62 | Gly-Pro | 0.0414 OD (750 nm)
63 | Ile-Arg | 0.0442 OD (750 nm)

Row | Compound | C. difficile Mass
64 | Nc1cc[nH]c(=O)n1 [Cytosine] | 0.0361 OD (750 nm)
65 | His-Lys | 0.0453 OD (750 nm)
66 | CN [Methylamine] | 0.0398 OD (750 nm)
67 | NCCc1c[nH]cn1 [Histamine] | 0.0424 OD (750 nm)
68 | NCCN [Ethylenediamine] | 0.0369 OD (750 nm)
69 | Nc1ccn([C@@H]2O[C@H](CO)[C@@H](O)[C@H]2O)c(=O)n1 [Cytidine] | 0.0456 OD (750 nm)
70 | CC(N)=O [Acetamide] | 0.0458 OD (750 nm)
71 | NC(=O)NC(N)=O [Biuret] | 0.0394 OD (750 nm)
72 | CCCCCCC(N)C(=O)O (racemic) [D,L-α-Amino-Caprylic acid] | 0.0484 OD (750 nm)
73 | Nc1nc2c(ncn2[C@@H]2O[C@H](CO)[C@@H](O)[C@H]2O)c(=O)[nH]1 [Guanosine] | 0.0092 OD (750 nm)
74 | O=c1[nH]c(=O)c2[nH]cnc2[nH]1 [Xanthine] | 0.2978 OD (750 nm)
75 | N[C@H](CO)C(=O)O [D-Serine] | 0.0465 OD (750 nm)
76 | C[C@@H](N)C(=O)O [D-Alanine] | 0.038 OD (750 nm)
77 | NC(=O)NCCC[C@H](N)C(=O)O [L-Citrulline] | 0.0377 OD (750 nm)
78 | NC(=O)[C@@H](O)[C@@H](O)[C@H](O)[C@@H](O)C=O [Glucuronamide] | 0.0369 OD (750 nm)
79 | O=c1ccn([C@@H]2O[C@H](CO)[C@@H](O)[C@H]2O)c(=O)[nH]1 [Uridine] | 0.0373 OD (750 nm)
80 | CC(C)[C@H](N)C(=O)O [L-Valine] | 0.0431 OD (750 nm)
81 | O=c1[nH]c(=O)c2ncn([C@@H]3O[C@H](CO)[C@@H](O)[C@H]3O)c2[nH]1 [Xanthosine] | 0.0516 OD (750 nm)
82 | NC=O [Formamide] | 0.0418 OD (750 nm)
83 | N[C@@H](CCO)C(=O)O [L-Homoserine] | 0.0293 OD (750 nm)

Row | Compound | C. difficile Mass
84 | N[C@@H](CS)C(=O)O [L-Cysteine] | 0.0394 OD (750 nm)
85 | NC(=O)NC1NC(=O)NC1=O (stereo not drawn) [Allantoin] | 0.0425 OD (750 nm)
86 | N[C@@H](Cc1ccc(O)cc1)C(=O)O [L-Tyrosine] | 0.1528 OD (750 nm)
87 | NCCCCN [Putrescine] | 0.0339 OD (750 nm)
88 | N[C@H]1C(O)O[C@H](CO)[C@H](O)[C@@H]1O (stereo partly drawn) [D-Galactosamine] | 0.0374 OD (750 nm)
89 | Cc1cn([C@H]2C[C@H](O)[C@@H](CO)O2)c(=O)[nH]c1=O [Thymidine] | 0.0384 OD (750 nm)
90 | CCN [Ethylamine] | 0.0401 OD (750 nm)
91 | O=c1cc[nH]c(=O)[nH]1 [Uracil] | 0.0375 OD (750 nm)
92 | NC(=O)CC[C@H](N)C(=O)O [L-Glutamine] | 0.0339 OD (750 nm)
93 | CCCCCN [N-Amylamine] | 0.0433 OD (750 nm)
94 | NCCCC[C@@H](N)C(=O)O [D-Lysine] | 0.0489 OD (750 nm)
95 | CC(=O)N[C@H]1C(O)O[C@H](CO)[C@H](O)[C@@H]1O (stereo partly drawn) [N-Acetyl-D-Galactosamine] | 0.0355 OD (750 nm)
96 | Nc1ncnc2c1ncn2[C@@H]1O[C@H](CO)[C@@H](O)[C@H]1O [Adenosine] | 0.0472 OD (750 nm)
97 | N[C@@H]1C(O)O[C@H](CO)[C@@H](O)[C@@H]1O (stereo partly drawn) [D-Mannosamine] | 0.0364 OD (750 nm)
98 | N[C@H](CC(=O)O)C(=O)O [D-Aspartic acid] | 0.0109 OD (750 nm)
99 | N[C@@H](Cc1c[nH]c2ccccc12)C(=O)O [L-Tryptophan] | 0.0299 OD (750 nm)
100 | N[C@@H](Cc1c[nH]cn1)C(=O)O [L-Histidine] | 0.0361 OD (750 nm)
101 | NCCCC(=O)O [γ-Aminobutyric acid] | 0.0375 OD (750 nm)
102 | NCCCC[C@H](N)C(=O)O [L-Lysine] | 0.0436 OD (750 nm)
103 | O=c1[nH]c(=O)c2[nH]c(=O)[nH]c2[nH]1 [Uric acid] | 0.0556 OD (750 nm)

Same assay, conditions: OD difference with vs without C. difficile, 72 h; nutritional stimulant panel PM05

Row | Compound | C. difficile Mass
104 | Nc1ncnc2c1ncn2[C@@H]1O[C@H](CO)[C@@H](O)[C@H]1O [Adenosine] | 0.0414 OD (750 nm)

Same assay, conditions: OD difference with vs without C. difficile, 72 h; phosphorus/sulfur source panel PM04

Row | Compound | C. difficile Mass
105 | NCCS(=O)O [Hypotaurine] | 0.0438 OD (750 nm)
106 | O=P1([O-])OP(=O)([O-])OP(=O)([O-])O1.[Na+].[Na+].[Na+] [Trimetaphosphate] | 0.0493 OD (750 nm)
107 | NCCS(=O)(=O)O [Taurine] | 0.0505 OD (750 nm)
108 | O=S1(=O)CCCC1 [Tetramethylene Sulfone] | 0.0442 OD (750 nm)
109 | O=S(=O)(O)CCO [2-Hydroxyethane Sulfonic acid] | 0.0428 OD (750 nm)
110 | C[C@H](CCC(=O)NCCS(=O)(=O)O)[C@H]1CC[C@H]2[C@@H]3[C@H](O)C[C@@H]4C[C@H](O)CC[C@]4(C)[C@H]3C[C@H](O)[C@]12C [Taurocholic acid] | 0.0536 OD (750 nm)
111 | CCCCS(=O)(=O)O [Butane Sulfonic acid] | 0.0398 OD (750 nm)
112 | Nc1ccc(S(=O)(=O)O)cc1 [p-Aminobenzene Sulfonic acid] | 0.0485 OD (750 nm)
113 | Nc1ncnc2c1ncn2[C@@H]1O[C@H](COP(=O)(O)O)[C@@H](O)[C@H]1O [Adenosine 5′-Monophosphate] | 0.0495 OD (750 nm)
